36 compounds from patent US20240132463A1, “SUBSTITUTED N-(2-(2,6-DIOXOPIPERIDIN-3-YL)-1,3-DIOXOISOINDOLIN-5-YL)ARYLSULFONAMIDE ANALOGS AS MODULATORS OF CEREBLON PROTEIN” (ST. JUDE CHILDREN'S RESEARCH HOSPITAL, INC., priority 2020, published 2024) can be followed below.

What is called IC50 is the concentration that gives 50% inhibition.

6×His-CRBN-DDB1 protein, sequence (Q96SW2 whole entry): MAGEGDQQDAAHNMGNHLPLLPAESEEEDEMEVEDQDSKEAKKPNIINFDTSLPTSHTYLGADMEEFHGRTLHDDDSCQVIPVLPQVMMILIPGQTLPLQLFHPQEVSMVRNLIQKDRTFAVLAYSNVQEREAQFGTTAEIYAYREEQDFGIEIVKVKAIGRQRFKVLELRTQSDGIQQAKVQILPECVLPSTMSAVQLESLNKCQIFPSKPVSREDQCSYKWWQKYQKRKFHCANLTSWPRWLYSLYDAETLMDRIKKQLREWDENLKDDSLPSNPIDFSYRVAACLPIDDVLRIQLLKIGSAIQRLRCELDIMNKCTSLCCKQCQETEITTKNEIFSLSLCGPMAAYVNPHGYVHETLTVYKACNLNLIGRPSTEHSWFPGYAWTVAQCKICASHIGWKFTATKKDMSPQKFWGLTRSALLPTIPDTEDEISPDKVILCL
6×His-CRBN-DDB1 protein, sequence (Q16531 whole entry partner): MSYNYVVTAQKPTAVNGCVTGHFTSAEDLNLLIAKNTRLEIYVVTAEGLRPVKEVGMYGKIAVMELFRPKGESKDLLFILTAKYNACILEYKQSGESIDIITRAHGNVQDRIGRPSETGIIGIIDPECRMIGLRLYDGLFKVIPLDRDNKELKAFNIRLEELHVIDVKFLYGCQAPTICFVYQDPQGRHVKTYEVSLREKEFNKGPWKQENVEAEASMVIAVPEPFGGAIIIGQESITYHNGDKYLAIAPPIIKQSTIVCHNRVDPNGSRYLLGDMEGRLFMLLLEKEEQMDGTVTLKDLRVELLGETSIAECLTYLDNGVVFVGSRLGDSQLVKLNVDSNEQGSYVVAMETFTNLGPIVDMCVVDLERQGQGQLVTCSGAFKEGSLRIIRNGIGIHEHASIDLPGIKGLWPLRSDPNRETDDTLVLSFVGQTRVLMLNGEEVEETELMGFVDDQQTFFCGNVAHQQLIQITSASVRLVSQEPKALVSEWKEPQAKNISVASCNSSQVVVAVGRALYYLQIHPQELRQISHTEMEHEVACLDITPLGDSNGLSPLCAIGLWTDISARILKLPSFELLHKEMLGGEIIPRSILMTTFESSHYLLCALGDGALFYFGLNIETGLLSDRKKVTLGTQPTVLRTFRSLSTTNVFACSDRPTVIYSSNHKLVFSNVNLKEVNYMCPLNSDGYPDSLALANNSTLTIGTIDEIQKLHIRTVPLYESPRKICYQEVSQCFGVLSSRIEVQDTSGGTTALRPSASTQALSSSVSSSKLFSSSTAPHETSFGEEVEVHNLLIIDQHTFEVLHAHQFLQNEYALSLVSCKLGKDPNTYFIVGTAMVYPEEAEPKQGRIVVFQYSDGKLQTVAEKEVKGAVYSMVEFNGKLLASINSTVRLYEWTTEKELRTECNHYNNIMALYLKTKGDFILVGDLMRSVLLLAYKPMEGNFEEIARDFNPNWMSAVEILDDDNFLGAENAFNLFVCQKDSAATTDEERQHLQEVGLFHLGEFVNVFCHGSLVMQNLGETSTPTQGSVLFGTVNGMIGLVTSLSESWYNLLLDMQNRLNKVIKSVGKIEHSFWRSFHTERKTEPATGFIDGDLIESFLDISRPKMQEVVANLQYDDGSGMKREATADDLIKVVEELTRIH

For the assay, the target named is 6×His-CRBN-DDB1 protein (Homo sapiens (Human), UniProt Q96SW2). Description: CRBN fluorescence polarization assay. To be noted: cereblon binding, class symbols; read-out: CRBN FP IC50. It is filed as binding. Here is the method:
6×His-CRBN-DDB1 protein (200 nM) and Cy5-O-Len probe (30 nM) were combined in 20 mM HEPES pH 7, 150 mM NaCl, 0.005% Tween-20 assay buffer. […] The plates were incubated in the dark for 1 hour at room temperature and then read on an Envision plate reader (PerkinElmer, Massachusetts, USA).
On the technique in general: In fluorescence polarisation assays a small probe gives low polarisation when free and higher when bound to something large.
`CC(C)(C)c1ccc(S(=O)(=O)Nc2ccc3c(c2)C(=O)N(C2CCC(=O)NC2=O)C3=O)cc1` (stereo not drawn) [Compound 3, 4-(tert-butyl)-N-(2-(2,6-dioxopiperidin-3-yl)-1,3-dioxoisoindolin-5-yl)benzenesulfonamide]: the IC50 was below 1000 nM.
In the case of `O=C1CCC(N2C(=O)c3ccc(NS(=O)(=O)c4cc(Cl)cc(Cl)c4)cc3C2=O)C(=O)N1` (stereo not drawn) [Compound 6, 3,5-dichloro-N-(2-(2,6-dioxopiperidin-3-yl)-1,3-dioxoisoindolin-5-yl)benzenesulfonamide], the IC50 was below 1000 nM.
To `O=C1CCC(N2C(=O)c3ccc(NS(=O)(=O)c4ccc(F)c(F)c4)cc3C2=O)C(=O)N1` (stereo not drawn) [Compound 11, N-(2-(2,6-dioxopiperidin-3-yl)-1,3-dioxoisoindolin-5-yl)-3,4-difluorobenzenesulfonamide] belongs below 1000 nM; to `CC(=O)Nc1ccc(S(=O)(=O)Nc2ccc3c(c2)C(=O)N(C2CCC(=O)NC2=O)C3=O)cc1` (stereo not drawn) [Compound 13, N-(4-(N-(2-(2,6-dioxopiperidin-3-yl)-1,3-dioxoisoindolin-5-yl)sulfamoyl)phenyl)acetamide], below 1000 nM; to `COc1ccc(S(=O)(=O)Nc2ccc3c(c2)C(=O)N(C2CCC(=O)NC2=O)C3=O)cc1` (stereo not drawn) [Compound 14, N-(2-(2,6-dioxopiperidin-3-yl)-1,3-dioxoisoindolin-5-yl)-4-methoxybenzenesulfonamide], below 1000 nM.
To `Cc1cccc(S(=O)(=O)Nc2ccc3c(c2)C(=O)N(C2CCC(=O)NC2=O)C3=O)c1` (stereo not drawn) [Compound 19, N-(2-(2,6-dioxopiperidin-3-yl)-1,3-dioxoisoindolin-5-yl)-3-methylbenzenesulfonamide] belongs below 1000 nM; to `O=C1CCC(N2Cc3ccc(NS(=O)(=O)c4ccccc4)cc3C2=O)C(=O)N1` (stereo not drawn) [Compound 22, N-(2-(2,6-dioxopiperidin-3-yl)-3-oxoisoindolin-5-yl)benzenesulfonamide], below 1000 nM.
`O=C1CCC(N2Cc3ccc(NS(=O)(=O)c4ccc(F)cc4)cc3C2=O)C(=O)N1` (stereo not drawn) [Compound 23, N-(2-(2,6-dioxopiperidin-3-yl)-3-oxoisoindolin-5-yl)-4-fluorobenzenesulfonamide]: the IC50 was below 1000 nM.
As for `COc1ccc(S(=O)(=O)Nc2ccc3c(c2)C(=O)N(C2CCC(=O)NC2=O)C3)cc1` (stereo not drawn) [Compound 24, N-(2-(2,6-dioxopiperidin-3-yl)-3-oxoisoindolin-5-yl)-4-methoxybenzenesulfonamide], the figure is 1000 to 10000 nM.
As for `Cc1ccc(S(=O)(=O)Nc2ccc3c(c2)C(=O)N(C2CCC(=O)NC2=O)C3)cc1` (stereo not drawn) [Compound 25, N-(2-(2,6-dioxopiperidin-3-yl)-3-oxoisoindolin-5-yl)-4-methylbenzenesulfonamide], the figure is below 1000 nM; as for `O=C1CCC(N2Cc3ccc(NS(=O)(=O)c4ccc(C(F)(F)F)cc4)cc3C2=O)C(=O)N1` (stereo not drawn) [Compound 26, N-(2-(2,6-dioxopiperidin-3-yl)-3-oxoisoindolin-5-yl)-4-(trifluoromethyl)benzenesulfonamide], below 1000 nM; as for `O=C1CCC(N2Cc3ccc(NS(=O)(=O)c4cccc(OC(F)(F)F)c4)cc3C2=O)C(=O)N1` (stereo not drawn) [Compound 27, N-(2-(2,6-dioxopiperidin-3-yl)-3-oxoisoindolin-5-yl)-3-(trifluoromethoxy)benzenesulfonamide], below 1000 nM.
Regarding `O=C1CCC(N2Cc3ccc(NS(=O)(=O)c4ccccc4C(F)(F)F)cc3C2=O)C(=O)N1` (stereo not drawn) [Compound 28, N-(2-(2,6-dioxopiperidin-3-yl)-3-oxoisoindolin-5-yl)-2-(trifluoromethyl)benzenesulfonamide], the IC50 is below 1000 nM.
As for `COc1cccc(S(=O)(=O)Nc2ccc3c(c2)C(=O)N(C2CCC(=O)NC2=O)C3)c1` (stereo not drawn) [Compound 29, N-(2-(2,6-dioxopiperidin-3-yl)-3-oxoisoindolin-5-yl)-3-methoxybenzenesulfonamide], the figure is below 1000 nM; as for `CC(C)c1ccc(S(=O)(=O)Nc2ccc3c(c2)C(=O)N(C2CCC(=O)NC2=O)C3)cc1` (stereo not drawn) [Compound 30, N-(2-(2,6-dioxopiperidin-3-yl)-3-oxoisoindolin-5-yl)-4-isopropylbenzenesulfonamide], below 1000 nM; as for `O=C1CCC(N2Cc3ccc(NS(=O)(=O)c4ccc(F)c(Cl)c4)cc3C2=O)C(=O)N1` (stereo not drawn) [Compound 31, 3-chloro-N-(2-(2,6-dioxopiperidin-3-yl)-3-oxoisoindolin-5-yl)-4-fluorobenzenesulfonamide], 1000 to 10000 nM.
As for `O=C1CCC(N2Cc3ccc(NS(=O)(=O)c4cccc(C(F)(F)F)c4)cc3C2=O)C(=O)N1` (stereo not drawn) [Compound 32, N-(2-(2,6-dioxopiperidin-3-yl)-3-oxoisoindolin-5-yl)-3-(trifluoromethyl)benzenesulfonamide], the figure is below 1000 nM.
As for `Cc1ccc(S(=O)(=O)Nc2ccc3c(c2)C(=O)N(C2CCC(=O)NC2=O)C3)cc1Cl` (stereo not drawn) [Compound 33, 3-chloro-N-(2-(2,6-dioxopiperidin-3-yl)-3-oxoisoindolin-5-yl)-4-methylbenzenesulfonamide], the figure is below 1000 nM; as for `Cc1ccc(F)c(S(=O)(=O)Nc2ccc3c(c2)C(=O)N(C2CCC(=O)NC2=O)C3)c1` (stereo not drawn) [Compound 34, N-(2-(2,6-dioxopiperidin-3-yl)-3-oxoisoindolin-5-yl)-2-fluoro-5-methylbenzenesulfonamide], below 1000 nM.
Regarding `Cc1ccccc1S(=O)(=O)Nc1ccc2c(c1)C(=O)N(C1CCC(=O)NC1=O)C2` (stereo not drawn) [Compound 35, N-(2-(2,6-dioxopiperidin-3-yl)-3-oxoisoindolin-5-yl)-2-methylbenzenesulfonamide], the IC50 is below 1000 nM.
With `Cc1c(Cl)cccc1S(=O)(=O)Nc1ccc2c(c1)C(=O)N(C1CCC(=O)NC1=O)C2` (stereo not drawn) [Compound 36, 3-chloro-N-(2-(2,6-dioxopiperidin-3-yl)-3-oxoisoindolin-5-yl)-2-methylbenzenesulfonamide], the IC50 was below 1000 nM.
To `O=C1CCC(N2Cc3ccc(NS(=O)(=O)c4ccccc4OC(F)(F)F)cc3C2=O)C(=O)N1` (stereo not drawn) [Compound 37, N-(2-(2,6-dioxopiperidin-3-yl)-3-oxoisoindolin-5-yl)-2-(trifluoromethoxy)benzenesulfonamide] belongs below 1000 nM; to `O=C1CCC(N2Cc3cc(NS(=O)(=O)c4ccccc4)ccc3C2=O)C(=O)N1` (stereo not drawn) [Compound 38, N-(2-(2,6-dioxopiperidin-3-yl)-1-oxoisoindolin-5-yl)benzenesulfonamide], 1000 to 10000 nM; to `COc1ccc(S(=O)(=O)Nc2ccc3c(c2)CN(C2CCC(=O)NC2=O)C3=O)cc1` (stereo not drawn) [Compound 40, N-(2-(2,6-dioxopiperidin-3-yl)-1-oxoisoindolin-5-yl)-4-methoxybenzenesulfonamide], below 1000 nM.
To `O=C1CCC(N2Cc3cc(NS(=O)(=O)c4cccc(OC(F)(F)F)c4)ccc3C2=O)C(=O)N1` (stereo not drawn) [Compound 43, N-(2-(2,6-dioxopiperidin-3-yl)-1-oxoisoindolin-5-yl)-3-(trifluoromethoxy)benzenesulfonamide] belongs below 1000 nM; to `O=C1CCC(N2Cc3cc(NS(=O)(=O)c4ccccc4C(F)(F)F)ccc3C2=O)C(=O)N1` (stereo not drawn) [Compound 44, N-(2-(2,6-dioxopiperidin-3-yl)-1-oxoisoindolin-5-yl)-2-(trifluoromethyl)benzenesulfonamide], below 1000 nM; to `Cc1cccc(S(=O)(=O)Nc2ccc3c(c2)CN(C2CCC(=O)NC2=O)C3=O)c1` (stereo not drawn) [Compound 45, N-(2-(2,6-dioxopiperidin-3-yl)-1-oxoisoindolin-5-yl)-3-methylbenzenesulfonamide], below 1000 nM.
To `CC(C)(C)c1ccc(S(=O)(=O)Nc2ccc3c(c2)CN(C2CCC(=O)NC2=O)C3=O)cc1` (stereo not drawn) [Compound 46, 4-(tert-butyl)-N-(2-(2,6-dioxopiperidin-3-yl)-1-oxoisoindolin-5-yl)benzenesulfonamide] belongs below 1000 nM; to `COc1cccc(S(=O)(=O)Nc2ccc3c(c2)CN(C2CCC(=O)NC2=O)C3=O)c1` (stereo not drawn) [Compound 47, N-(2-(2,6-dioxopiperidin-3-yl)-1-oxoisoindolin-5-yl)-3-methoxybenzenesulfonamide], below 1000 nM.
With `O=C1CCC(N2Cc3cc(NS(=O)(=O)c4ccc(F)c(Cl)c4)ccc3C2=O)C(=O)N1` (stereo not drawn) [Compound 49, 3-chloro-N-(2-(2,6-dioxopiperidin-3-yl)-1-oxoisoindolin-5-yl)-4-fluorobenzenesulfonamide], the IC50 was below 1000 nM.
As for `O=C1CCC(N2Cc3cc(NS(=O)(=O)c4cccc(C(F)(F)F)c4)ccc3C2=O)C(=O)N1` (stereo not drawn) [Compound 50, N-(2-(2,6-dioxopiperidin-3-yl)-1-oxoisoindolin-5-yl)-3-(trifluoromethyl)benzenesulfonamide], the figure is below 1000 nM; as for `O=C1CCC(N2Cc3cc(NS(=O)(=O)c4ccc(-c5ccccc5)cc4)ccc3C2=O)C(=O)N1` (stereo not drawn) [Compound 51, N-(2-(2,6-dioxopiperidin-3-yl)-1-oxoisoindolin-5-yl)-[1,1′-bipheny]-4-sulfonamide], below 1000 nM; as for `Cc1ccc(S(=O)(=O)Nc2ccc3c(c2)CN(C2CCC(=O)NC2=O)C3=O)cc1Cl` (stereo not drawn) [Compound 52, 3-chloro-N-(2-(2,6-dioxopiperidin-3-yl)-1-oxoisoindolin-5-yl)-4-methylbenzenesulfonamide], below 1000 nM.
To `Cc1ccc(F)c(S(=O)(=O)Nc2ccc3c(c2)CN(C2CCC(=O)NC2=O)C3=O)c1` (stereo not drawn) [Compound 53] belongs below 1000 nM; to `Cc1ccccc1S(=O)(=O)Nc1ccc2c(c1)CN(C1CCC(=O)NC1=O)C2=O` (stereo not drawn) [Compound 54, N-(2-(2,6-dioxopiperidin-3-yl)-1-oxoisoindolin-5-yl)-2-methylbenzenesulfonamide], below 1000 nM; to `Cc1c(Cl)cccc1S(=O)(=O)Nc1ccc2c(c1)CN(C1CCC(=O)NC1=O)C2=O` (stereo not drawn) [Compound 55, 3-chloro-N-(2-(2,6-dioxopiperidin-3-yl)-1-oxoisoindolin-5-yl)-2-methylbenzenesulfonamide], below 1000 nM.
